Laboratory results reported in the supplement of paper PMC10307832.

Tests used:
Experiment in all cases: relative viability (nuclei count vs DMSO), 5 days (fraction); higher = more cells survive
[1] = compound: CCN1CCN(c2ccc(Nc3cc(N(C)C(=O)Nc4c(Cl)c(OC)cc(OC)c4Cl)ncn3)cc2)CC1 [BGJ398] + CC(=O)Nc1cccc(-n2c(=O)n(C3CC3)c(=O)c3c(Nc4ccc(I)cc4F)n(C)c(=O)c(C)c32)c1 [Trametinib] (partner 0.02 µM)
Outline: (§1)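 Cells from lung cancer lines were seeded into 1536-well plates and, one day later, dosed by pin tool. Treatments were either a single drug or a fixed dose of an anchor drug with five library-drug doses (not always all listed) in √10 steps. After 5 days, nuclei were stained in a one-step fixation (final 0.05% Triton X-100, 1% formaldehyde, 1 ug/ml Hoechst) and counted on 4× images, and relative viability is the treated-to-vehicle nuclei ratio, as the median of duplicate plates.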

[2] = compound: C1=CC2=NC=CN=C2C=C1/C=C/3\C(=O)NC(=O)S3 + C[C@@H](Oc1cc(-c2cnn(C3CCNCC3)c2)cnc1N)c1c(Cl)ccc(F)c1Cl [Crizotinib] (partner 1 µM)
Outline: as §1

[3] = compound: CCN1CCN(c2ccc(Nc3cc(N(C)C(=O)Nc4c(Cl)c(OC)cc(OC)c4Cl)ncn3)cc2)CC1 [BGJ398] + Cc1cc(Nc2cc(N3CCN(C)CC3)nc(Sc3ccc(NC(=O)C4CC4)cc3)n2)n[nH]1 [Tozasertib] (partner 0.1 µM)
Outline: as §1

[4] = compound: CCN1CCN(c2ccc(Nc3cc(N(C)C(=O)Nc4c(Cl)c(OC)cc(OC)c4Cl)ncn3)cc2)CC1 [BGJ398] + Nc1ncn([C@H]2C[C@H](O)[C@@H](CO)O2)c(=O)n1 [Decitabine] (partner 2 µM)
Outline: as §1

Q: With UMC-11 as the cell line, how does the relative viability ([1]; first compound 0.01 µM) read?
A: Its relative viability is 0.671.

Q: What about the relative viability ([1]; first compound 0.03162 µM) of the same cell line?
A: The relative viability was 0.749.

Q: What about the relative viability ([1]; first compound 0.1 µM) of the same cell line?
A: Its relative viability is 0.808.

Q: What about the relative viability ([1]; first compound 0.3162 µM) of the same cell line?
A: The relative viability was 0.622.

Q: And the relative viability ([1]; first compound 1 µM)?
A: The relative viability was 0.55.

Q: And the relative viability ([2]; first compound 0.02 µM)?
A: Its relative viability is 0.627.

Q: What about the relative viability ([2]; first compound 0.06325 µM) of the same cell line?
A: Its relative viability is 0.572.

Q: What about the relative viability ([2]; first compound 0.2 µM) of the same cell line?
A: The relative viability was 0.557.

Q: And the relative viability ([2]; first compound 0.6325 µM)?
A: The relative viability was 0.603.

Q: What about the relative viability ([2]; first compound 2 µM) of the same cell line?
A: The relative viability was 0.722.

Q: And the relative viability ([3]; first compound 0.01 µM)?
A: Its relative viability is 0.2.

Q: And the relative viability ([3]; first compound 0.03162 µM)?
A: The relative viability was 0.202.

Q: And the relative viability ([3]; first compound 0.1 µM)?
A: The relative viability was 0.207.

Q: What about the relative viability ([3]; first compound 0.3162 µM) of the same cell line?
A: The relative viability was 0.206.

Q: And the relative viability ([3]; first compound 1 µM)?
A: Its relative viability is 0.235.

Q: And the relative viability ([4]; first compound 0.01 µM)?
A: Its relative viability is 0.504.

Q: What about the relative viability ([4]; first compound 0.03162 µM) of the same cell line?
A: The relative viability was 0.571.

Q: And the relative viability ([4]; first compound 0.1 µM)?
A: Its relative viability is 0.637.

Q: What about the relative viability ([4]; first compound 0.3162 µM) of the same cell line?
A: The relative viability was 0.652.

Q: What about the relative viability ([4]; first compound 1 µM) of the same cell line?
A: Its relative viability is 0.365.
